Test [1] has as its target T1, Glutamate NMDA receptor (Rattus norvegicus) (UniProt P35439+Q00959+Q00960+Q00961+Q62645+Q8VHN2+Q9R1M7). The test is described as follows: Effect of spermine on the inhibition of [3H]MK-801 binding to the NMDA receptor at 100 TRIS acetate, pH 7. The class given is protein-complex assay.
Test [2] concerns the target T1, Glutamate NMDA receptor (Rattus norvegicus). The test is described as follows: Effect of spermine on the inhibition of [3H]MK-801 binding to the NMDA receptor TRIS acetate, pH 7. The class given is protein-complex assay.
The target is the same in test [3]. The test is described as follows: Effect of spermine on the inhibition of [3H]-MK-801 binding to the NMDA receptor TRIS acetate, pH 7. The class given is protein-complex assay.
The target in test [4] is Glutamate NMDA receptor. The test can be described thus: Inhibition of [3H]MK-801 binding to the NMDA receptor of rat hippocampal membranes, measured in buffer containing 20 mM TRIS acetate, pH 7. The format is cell membranes, Membrane.
Test [5] deals with Glutamate NMDA receptor. The test is described as follows: Inhibition of [3H]MK-801 binding to the NMDA receptor of rat hippocampal membranes, measured in buffer containing 50 mM TRIS acetate, pH 7. The class given is cell membranes, Membrane.
The target of test [6] is T1, Glutamate NMDA receptor (Rattus norvegicus). The test can be described thus: Hill coefficient for binding to NMDA receptor in TRIS acetate pH 7. The class given is protein-complex assay.
Test [7] shares this target. The test is described as follows: Hill coefficient for binding to NMDA receptor. The class given is protein-complex assay.
The target of test [8] is Glutamate NMDA receptor. The test is described as follows: Inhibition of [3H]MK-801 binding to NMDA receptor in 50 mM TRIS acetate pH 7. The class given is protein-complex assay, Rattus norvegicus.
Test [9] has as its target T1, Glutamate NMDA receptor (Rattus norvegicus). The test is described as follows: Effect of spermine on inhibition of [3H]MK-801 binding to NMDA receptor at 100 TRIS acetate, pH 7. The format is protein-complex assay.

Where “and” joins values, the source holds several entries; their conditions need not be identical. Identical values can stand only once.

As to `N=C(N)c1ccc(OC[C@@H](O)[C@H](O)COc2ccc(C(=N)N)cc2)cc1`, the Increase in IC50 in [1] is 8.1; in test [2], 28.4 and 22.4; in test [3], 9.3. For the same compound, the 50% inhibitory concentration (IC50) on Glutamate NMDA receptor [4] was 24.8 µM and 22.6 µM; on Glutamate NMDA receptor [5] it was 66 µM. The nH is 1.23 and 1.08 in test [6]; 1.04 and 1.09 in test [7].

With `N=C(N)c1ccc(OC/C=C\COc2ccc(C(=N)N)cc2)cc1`, the Increase in IC50 in test [2] is 29.1 and 38.2; in test [3] it was 11.9. The IC50 was 1.8 µM and 1.48 µM at Glutamate NMDA receptor [4]; 4.26 µM on Glutamate NMDA receptor [5]. The nH was 1.13 in test [6]; 1.39 and 1.38 in test [7].

Turning to `COc1cc(C2=NCCN2)ccc1OC/C=C/COc1ccc(C2=NCCN2)cc1OC`, the Increase in IC50 in test [1] was 4.24 and 3.79; in [2] it was 12.7 and 13.8. The 50% inhibitory concentration (IC50) is 35 µM and 33 µM at Glutamate NMDA receptor [4]; 63 µM at Glutamate NMDA receptor [5]; 83 µM at Glutamate NMDA receptor [8]. Besides, the nH was 1.09 and 1.16 in test [6]; 1.04 and 0.96 in [7].

Consider `N=C(N)c1ccc(OC/C=C/COc2ccc(C(=N)N)cc2)cc1`, for which the Increase in IC50 in test [2] is 21.7 and 27.8; in test [3] it was 9.5. Also, the IC50 is 2.48 µM and 1.94 µM on Glutamate NMDA receptor [4]; 3.81 µM on Glutamate NMDA receptor [5]. Besides, the nH in test [6] is 0.71; in [7], 0.98 and 0.88.

For the compound `COc1cc(C(=N)N)ccc1OC/C=C/COc1ccc(C(=N)N)cc1OC`, the Increase in IC50 in test [1] was 2.87 and 4.15; in [2] it was 14.3 and 12.2. In addition, the IC50 on Glutamate NMDA receptor [4] is 12 µM and 12.6 µM; at Glutamate NMDA receptor [5] it was 31 µM and 26.4 µM. Besides, the nH was 1.28 and 1.21 in [6]; 1.19 in test [7].

Take `C(=C\COc1ccc(C2=NCCN2)cc1)/COc1ccc(C2=NCCN2)cc1`: the Increase in IC50 in [9] is 4.88; in test [2], 15.3 and 12.7; in test [3], 4.14. Besides, the IC50 on Glutamate NMDA receptor [4] was 13.1 µM and 13.8 µM; on Glutamate NMDA receptor [5], 38 µM and 37 µM. Moreover, the nH is 0.98 and 0.81 in test [6]; 0.95 and 0.87 in [7].

`N=C(N)c1ccc(OCCCCCOc2ccc(C(=N)N)cc2)cc1` [PENTAMIDINE]: the Increase in IC50 in test [2] was 30.7 and 21.4; in test [3] it was 9.5. The IC50 was 1.31 µM and 1.74 µM on Glutamate NMDA receptor [4]; 3.06 µM at Glutamate NMDA receptor [5]. Moreover, the nH in test [6] was 0.93; in test [7] it was 1.17 and 1.15.

As for `C(=C/COc1ccc(C2=NCCN2)cc1)/COc1ccc(C2=NCCN2)cc1`, the Increase in IC50 in [2] was 9.9 and 12.1; in [3] it was 5.48. In addition, the half-maximal inhibitory concentration (IC50) at Glutamate NMDA receptor [4] was 18.8 µM and 15.9 µM; at Glutamate NMDA receptor [5] it was 26.7 µM. Besides, the nH in [6] was 0.99; in test [7], 1.21.

For `N=C(N)c1ccc(OCCCCOc2ccc(C(=N)N)cc2)cc1`, the Increase in IC50 is 28.8 and 35 in test [2]; 10.2 in test [3]. For the same compound, the IC50 on Glutamate NMDA receptor [4] is 2.64 µM and 3.01 µM; on Glutamate NMDA receptor [5], 5.18 µM. In addition, the nH was 0.99 in test [6]; 1.11 and 1.36 in test [7].

`COc1cc(C(=N)N)ccc1OC/C=C\COc1ccc(C(=N)N)cc1OC`: the Increase in IC50 was 1.72 and 2.87 in test [1]; 4.7 and 4.5 in test [2]. The IC50 is 50 µM and 62 µM at Glutamate NMDA receptor [4]; 95 µM on Glutamate NMDA receptor [5]; 73 µM on Glutamate NMDA receptor [8]. For the same compound, the nH was 2.14 and 1 in test [6]; 1.21 and 1.46 in test [7].

For `COc1cc(C2=NCCN2)ccc1OC/C=C\COc1ccc(C2=NCCN2)cc1OC`, the Increase in IC50 is 7.8 and 8.6 in test [2]; 4.62 and 3.43 in test [3]. Besides, the IC50 on Glutamate NMDA receptor [4] was 26.5 µM and 23.3 µM; at Glutamate NMDA receptor [5], 32.6 µM and 49 µM. The nH was 1.33 and 1.15 in [6]; 1.13 and 1.29 in [7].

(Values after ChEMBL document CHEMBL1130444, “Inhibitory effects of pentamidine analogues on spermine stimulated ligand binding to the NMDA receptor complex” (Bioorg Med Chem Lett, 1997).)
